The source of these data is patent US20170305943A1, “COMPOUNDS FOR THE TREATMENT OF BACTERIAL INFECTIONS” (priority 2014, published 2017).

Converted amounts (≈) assume the structure as drawn. Where only a bound is given, the exact number is not on record here.

This assay concerns Clostridium difficile (Isolate ID ATCC 9689). In words: Bacterial Assay: Determination of Antibacterial Activity (MIC, broth microdilution or agar dilution). The assay is classed as cell-based. The following applies: Clostridioides difficile, ATCC9689, 48 h, read-out: C. difficile MIC Activity Range. On the procedure:
Bacterial Assay: Determination of Antibacterial Activity Compounds of the invention were tested for antimicrobial activity by susceptibility testing in liquid or on solid media. Minimum inhibitory concentrations (MICs) for compounds against each strain were determined by the broth microdilution or agar dilution method according to the guidelines of the Clinical Laboratories and Standards Institute, formerly the National Committee for Clinical Laboratory Standards (Clinical Laboratories and Standards Institute. Methods for Dilution Antimicrobial Susceptibility Tests for Bacteria That Grow Anaerobically; Approved Standard-Seventh Edition. Document M11-A7, CLSI, Wayne, Pa., 2007, Clinical Laboratories and Standards Institute). Briefly MICs were determined by visible inspection after 48 hours of growth in the presence of compounds, cultures were grown at 37° C. in anaerobic gas packs using reinforced clostridial medium supplemented with 0.1% defribrinated horse blood. The bacterial strains tested include C. difficile (Clostridium difficile (Isolate ID ATCC 9689)) (Table 2) and two drug resistant clinical isolates (Clostridium difficile (Isolate ID BI-9) and Clostridium difficile (Isolate ID 027-01) (Table 3).
MICs were determined to be within the activity ranges “A” activity≦1.01 μg/mL; “B” activity>1.0 μg/mL-4.0 μg/mL; “C” activity>4.0 μg/mL-16 μg/mL
`NC(=O)c1c(F)ccc(O[C@H](CO)c2nc(-c3ccc(C(F)(F)F)cc3)c(Br)o2)c1F` (racemic) [Compound 32, 3-(1-{5-bromo-4-[4-(trifluoromethyl)phenyl]-1,3-oxazol-2-yl}-2-hydroxyethoxy)-2,6-difluorobenzamide]: the MIC was below 1.01 µg/mL. The figure for `NC(=O)c1c(F)ccc(OC(COC(=O)Nc2cccnc2)c2nc(-c3ccc(C(F)(F)F)cc3)c(Br)o2)c1F` (racemic) [Compound 64, 2-{5-bromo-4-[4-(trifluoromethyl)phenyl]-1,3-oxazol-2-yl}-2-(3-carbamoyl-2,4-difluorophenoxy)ethyl pyridin-3-ylcarbamate] is below 1.01 µg/mL.

For `NC(=O)c1c(F)ccc(OC(CNC(=O)OCc2ccccc2)c2nc(-c3ccc(C(F)(F)F)cc3)c(Br)o2)c1F` (racemic) [Compound 93, benzyl [2-{5-bromo-4-[4-(trifluoromethyl)phenyl]-1,3-oxazol-2-yl}-2-(3-carbamoyl-2,4-difluorophenoxy)ethyl]carbamate], the MIC fell in the range of 1 to 4 µg/mL (≈ 1.56 to 6.25 µM). With `COC(=O)NCC(Oc1ccc(F)c(C(N)=O)c1F)c1nc(-c2ccc(C(F)(F)F)cc2)c(Br)o1` (racemic) [Compound 94, methyl [2-{5-bromo-4-[4-(trifluoromethyl)phenyl]-1,3-oxazol-2-yl}-2-(3-carbamoyl-2,4-difluorophenoxy)ethyl]carbamate], the MIC is 1 to 4 µg/mL (≈ 1.77 to 7.09 µM). For the compound `CCNC(=O)NCC(Oc1ccc(F)c(C(N)=O)c1F)c1nc(-c2ccc(C(F)(F)F)cc2)c(Br)o1` (racemic) [Compound 95, 3-(1-{5-bromo-4-[4-(trifluoromethyl)phenyl]-1,3-oxazol-2-yl}-2-[(ethylcarbamoyl)amino]ethoxy)-2,6-difluorobenzamide], the MIC was below 1.01 µg/mL. The figure for `NC(=O)c1c(F)ccc(OC(CNC(=O)c2ccccc2)c2nc(-c3ccc(C(F)(F)F)cc3)c(Br)o2)c1F` (racemic) [Compound 96, 3-[2-(benzoylamino)-1-{5-bromo-4-[4-(trifluoromethyl)phenyl]-1,3-oxazol-2-yl}ethoxy]-2,6-difluorobenzamide] is below 1.01 µg/mL; for `NC(=O)c1c(F)ccc(OC(CNC(=O)c2cccnc2)c2nc(-c3ccc(C(F)(F)F)cc3)c(Br)o2)c1F` (racemic) [Compound 97, N-[2-{5-bromo-4-[4-(trifluoromethyl)phenyl]-1,3-oxazol-2-yl}-2-(3-carbamoyl-2,4-difluorophenoxy)ethyl]pyridine-3-carboxamide] it is 1 to 4 µg/mL (≈ 1.64 to 6.54 µM). As for `NC(=O)c1c(F)ccc(OC(CNC(=O)c2ccccn2)c2nc(-c3ccc(C(F)(F)F)cc3)c(Br)o2)c1F` (racemic) [Compound 98, N-[2-{5-bromo-4-[4-(trifluoromethyl)phenyl]-1,3-oxazol-2-yl}-2-(3-carbamoyl-2,4-difluorophenoxy)ethyl]pyridine-2-carboxamide], the figure is 1 to 4 µg/mL (≈ 1.64 to 6.54 µM). In the case of `NC(=O)c1c(F)ccc(OC(CO)c2nc(-c3ccc(Cl)s3)c(Br)o2)c1F` (racemic) [Compound 101, 3-{1-[5-bromo-4-(5-chlorothiophen-2-yl)-1,3-oxazol-2-yl]-2-hydroxyethoxy}-2,6-difluorobenzamide], the MIC lay within 1 to 4 µg/mL (≈ 2.08 to 8.34 µM).

Regarding `CCCCCCCCCOc1ccc(Cl)c(C(N)=O)c1F` [Compound 2, 6-chloro-2-fluoro-3-(nonyloxy)benzamide], the MIC is below 1.01 µg/mL.

As for `CCCCCC/C=C/COc1ccc(F)c(C(N)=O)c1F` [Compound 3, 2,6-difluoro-3-[(2E)-non-2-en-1-yloxy]benzamide], the MIC was below 1.01 µg/mL. Consider `CCCCCCOCCOc1ccc(F)c(C(N)=O)c1F` [Compound 4, 2,6-difluoro-3[2-(hexyloxy)ethoxy]benzamide], for which the MIC was in the range of 1 to 4 µg/mL (≈ 3.32 to 13.3 µM). As for `CCCCCCCCCOc1ccc(F)c(C(N)=O)c1Cl` [Compound 5, 2-chloro-6-fluoro-3-(nonyloxy)benzamide], the figure is below 1.01 µg/mL; as for `CC/C=C\CCCCCOc1ccc(F)c(C(N)=O)c1F` [Compound 6, 2,6-difluoro-3-[(6Z)-non-6-en-1-yloxy]benzamide], below 1.01 µg/mL.

On to `NC(=O)c1c(F)ccc(OCc2nc(-c3ccc(Cl)cc3)no2)c1F` [Compound 13, 3-{[3-(4-chlorophenyl)-1,2,4-oxadiazol-5-yl]methoxy}-2,6-difluorobenzamide], for which the MIC lay within 1 to 4 µg/mL (≈ 2.73 to 10.9 µM). As for `C=CCc1ccc2sc(COc3ccc(F)c(C(N)=O)c3F)nc2c1` [Compound 14, 2,6-difluoro-3-{[5-(prop-2-en-1-yl)-1,3-benzothiazol-2-yl]methoxy}benzamide], the figure is 4 to 16 µg/mL (≈ 11.1 to 44.4 µM). Turning to `NC(=O)c1c(F)ccc(OCc2nc(-c3ccc(F)cc3)cs2)c1F` [Compound 15, 2,6-difluoro-3-{[4-(4-fluorophenyl)-1,3-thiazol-2-yl]methoxy}benzamide], the MIC lay within 1 to 4 µg/mL (≈ 2.74 to 11 µM). The figure for `Cc1ccc(-c2nc(CCOc3ccc(F)c(C(N)=O)c3F)c(C)o2)cc1` [Compound 18, 2,6-difluoro-3-{2-[5-methyl-2-(4-methylphenyl)-1,3-oxazol-4-yl]ethoxy}benzamide] is 1 to 4 µg/mL (≈ 2.69 to 10.7 µM); for `COc1ccc(-c2nc(COc3ccc(F)c(C(N)=O)c3F)oc2Br)cc1` [Compound 22, 3-{[5-bromo-4-(4-methoxyphenyl)-1,3-oxazo1-2-yl]methoxy}-2,6-difluorobenzamide] it is below 1.01 µg/mL. The figure for `COc1ncc(-c2csc(C(C)Oc3ccc(F)c(C(N)=O)c3F)n2)s1` (stereo not drawn) [Compound 23, 2,6-difluoro-3-[1-(2′-methoxy-4,5′-bi-1,3-thiazol-2-yl)ethoxy]benzamide] is 4 to 16 µg/mL (≈ 10.1 to 40.3 µM); for `COc1ccc(-c2nc(C(C)Oc3ccc(F)c(C(N)=O)c3F)oc2Br)cc1` (stereo not drawn) [Compound 24, 3-{1-[5-bromo-4-(4-methoxyphenyl)-1,3-oxazol-2-yl]ethoxy}-2,6-difluorobenzamide] it is below 1.01 µg/mL. Take `NC(=O)c1c(F)ccc(OC(CO)c2nc(-c3ccc(Cl)cc3)cs2)c1F` (stereo not drawn) [Compound 25, 3-{1-[4-(4-chlorophenyl)-1,3-thiazol-2-yl]-2-hydroxyethoxy}-2,6-difluorobenzamide]: the MIC was 4 to 16 µg/mL (≈ 9.74 to 38.9 µM). Regarding `C=CCc1oc(C(C)Oc2ccc(F)c(C(N)=O)c2F)nc1-c1ccc(OC(F)(F)F)cc1` (stereo not drawn) [Compound 26, 2,6-difluoro-3-(1-{5-(prop-2-en-1-yl)-4-[4-(trifluoromethoxy)phenyl]-1,3-oxazol-2-yl}ethoxy)benzamide], the MIC lay within 4 to 16 µg/mL (≈ 8.54 to 34.2 µM).

Consider `CCC(Oc1ccc(F)c(C(N)=O)c1F)c1nc(-c2ccc(Cl)cc2)c(Br)o1` (stereo not drawn) [Compound 27, 3-{1-[5-bromo-4-(4-chlorophenyl)-1,3-oxazol-2-yl]propoxy}-2,6-difluorobenzamide], for which the MIC was in the range of 1 to 4 µg/mL (≈ 2.12 to 8.48 µM).

With `CCCc1oc(C(C)Oc2ccc(F)c(C(N)=O)c2F)nc1-c1ccc(OC(F)(F)F)cc1` (stereo not drawn) [Compound 28, 2,6-difluoro-3-(1-{5-propyl-4-[4-(trifluoromethoxy)phenyl]-1,3-oxazol-2-yl}ethoxy)benzamide], the MIC was 4 to 16 µg/mL (≈ 8.5 to 34 µM). As to `CC(Oc1ccc(F)c(C(N)=O)c1F)c1nc(-c2ccc(C(F)(F)F)cc2)c(Br)o1` (stereo not drawn) [Compound 29, 3-(1-{5-bromo-4-[4-(trifluoromethyl)phenyl]-1,3-oxazol-2-yl}ethoxy)-2,6-difluorobenzamide], the MIC is below 1.01 µg/mL. Turning to `CC(Oc1ccc(F)c(C(N)=O)c1F)c1nc(-c2ccc(Cl)cc2)ns1` (stereo not drawn) [Compound 30, 3-{1-[3-(4-chlorophenyl)-1,2,4-thiadiazol-5-yl]ethoxy}-2,6-difluorobenzamide], the MIC is below 1.01 µg/mL. For the compound `CC(=O)OCC(Oc1ccc(F)c(C(N)=O)c1F)c1nc(-c2ccc(C(F)(F)F)cc2)c(Br)o1` (stereo not drawn) [Compound 31, 2-{5-bromo-4-[4-(trifluoromethyl)phenyl]-1,3-oxazol-2-yl}-2-(3-carbamoyl-2,4-difluorophenoxy)ethyl acetate], the MIC was below 1.01 µg/mL. As for `CC(=O)OCC(Oc1ccc(F)c(C(N)=O)c1F)c1nc(-c2ccc(C(F)(F)F)cc2)c(Cl)o1` (stereo not drawn) [Compound 34, 2-(3-carbamoyl-2,4-difluorophenoxy)-2-{5-chloro-4-[4-(trifluoromethyl)phenyl]-1,3-oxazol-2-yl}ethyl acetate], the figure is below 1.01 µg/mL. Consider `CNCNC(=O)c1c(F)ccc(OC(C)c2nc(-c3ccc(OC(F)(F)F)cc3)c(Cl)o2)c1F` (stereo not drawn) [Compound 35, 3-(1-{5-chloro-4-[4-(trifluoromethoxy)phenyl]-1,3-oxazol-2-yl}ethoxy)-2,6-difluoro-N-[(methylamino)methyl]benzamide], for which the MIC was below 1.01 µg/mL. As for `CN(C)CC(=O)OCC(Oc1ccc(F)c(C(N)=O)c1F)c1nc(-c2ccc(C(F)(F)F)cc2)c(Br)o1` (stereo not drawn) [Compound 36, 2-{5-bromo-4-[4-(trifluoromethyl)phenyl]-1,3-oxazol-2-yl}-2-(3-carbamoyl-2,4-difluorophenoxy)ethyl N,N-dimethylglycinate], the figure is below 1.01 µg/mL; as for `CNCC(=O)OCC(Oc1ccc(F)c(C(N)=O)c1F)c1nc(-c2ccc(Cl)cc2)c(Cl)o1` (stereo not drawn) [Compound 37, 2-(3-carbamoyl-2,4-difluorophenoxy)-2-[5-chloro-4-(4-chlorophenyl)-1,3-oxazol-2-yl]ethyl N-methylglycinate], 4 to 16 µg/mL (≈ 8 to 32 µM). The figure for `NC(=O)c1c(F)ccc(OC(COC(=O)CN2C(=O)c3ccccc3C2=O)c2nc(-c3ccc(C(F)(F)F)cc3)c(Br)o2)c1F` (stereo not drawn) [Compound 38, 2-{5-bromo-4-[4-(trifluoromethyl)phenyl]-1,3-oxazol-2-yl}-2-(3-carbamoyl-2,4-difluorophenoxy)ethyl (1,3-dioxo-1,3-dihydro-2H-isoindo1-2-yl)acetate] is below 1.01 µg/mL.
